Data taken from US4959368A, “Therapeutic agent for neurological diseases” (Mitsui Petrochemical Industries Ltd., priority 1986, dated 1990).
Like-named read-outs stand apart in the source and are kept apart here.

Columns and labels:
[1] = system: human neuroblastoma cell line GOTO; experiment: Activity on neuroblastoma cell line GOTO (cell number, number and length of neurites); format: cell-based; conditions: for Number of cells: control 3.17
Procedure: (§1) The biological activities in vitro of the compounds of formula (I) on cells of the nervous system were tested. The cells tested were human neuroblastoma cell line GOTO [see Sekiguchi, M., Oota, T., Sakakibara, K., Inui, N. & Fujii, G., Japan. J. Exp. Med., 49, 67-83 (1979)], and neuroblastoma cell line NB-1 [see Miyake, S., Shimo, Y., Kitamura, T., Nojyo, Y., Nakamura, T., Imkashuku, S. and Abe, T., The Autonomic Nervous System, 10, 115-120 (1973)], and mouse neuroblastoma cell line neuro-2a (Dainippon Pharmaceutical Co., Ltd.) which have been established as the cells of the nervous system. The above neuve cells were grown in an incubator at 37° C. in the presence of 5% carbon dioxide gas exponentially, and then cultivated for a certain period of time together with the compounds of formula (I).
The effect of the compounds of this invention on neuroblastoma cells was examined by the following method.
(§2) A culture medium [composed of 45% of RPMI 1640 medium, 45% modified Eagle's medium (MEM) and 10% of fetal calf serum (FCS) and containing penicillin G sodium (100 units/ml) and streptomycin sulfate (100 microgram/ml)] containing neurobalstoma cell line GOTO in the logarithmic growth period was poured in an amount of 2 ml each into polystyrene dishes (35 mm; made by Corning Co.) so that the cell concentration was 2 to 6×10^4 cells per dish, and the cells were cultured for 1 to 2 days in a carbon dioxide gas incubator containing 5% of carbon dioxide gas in air at 37° C. Then, the culture fluid was removed, and 2 ml of a fresh serum-free culture fluid (consisting of 50% of RPMI medium and 50% of MEM medium and containing penicillin G sodium and streptomycin sulfate in the same amounts as above) was added. At the same time, a presterilized PBS solution (phosphate buffered saline) of each of the test compounds in various concentrations was added to each of the dishes. After culturing for 24 hours, the number of living cells was counted. Furthermore, the culture was photographed, and from the photos, the number and length of neurites per cell were measured. The numer of living cells was counted for 3 to 6 dishes by resistance to staining with erythrosine dye. The number and length of the neurites were measured with regard to 6 photos (more than 200 cells per photo).

[2] = system: mouse neuroblastoma cell line neuro-2a; experiment: Activity on neuro-2a, cells with outgrown neurites; format: cell-based
Outline: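 Mouse neuro-2a cells in DMEM with FCS exposed to compounds for 24 h (up to 6 concentrations, triplicate runs), glutaraldehyde-fixed and methylene blue-stained. Proportion of cells bearing a neurite at least twice the cell's long diameter counted microscopically over ≥200 cells.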

Acute toxicity, mouse = format: in vivo; conditions: in vivo, po, read-out: Presumed LD50
Procedure: (§3) The acute toxicity of the compounds of the invention was examined by the following method.
(§4) Male ddy-strain 5-week old mice and male Wistar-strain 8 week old rats, five per group, were used as experimental animals. Each of the compounds was dissolved in saline and administered perorally, and the toxicity of the compound was assessed 24 hours after the administration.

mice = experiment: Acute toxicity, mouse; format: in vivo; conditions: 24 hours
Procedure: as §3, §4

[3] = system: mouse neuroblastoma cell line neuro-2a; experiment: Activity on cell line neuro-2a (simple method); format: cell-based
Procedure: as §1, with “(I). […]” for “(I).”
(§5) As a simple method of evaluation, the number of cells have neurites with a length equal to, or larger than, the long diameter of the cell was divided by the total number of cells.

[4] = system: human neuroblastoma cell line GOTO; experiment: Activity on cell line GOTO (simple method); format: cell-based; conditions: 10 μg/ml, control 8.4
Procedure: as §1, §2, §5

[5] = Table 1 Run No. 3, 1 μg/ml, control 1.94 ± 0.69, all *P <0.01
[6] = Table 1 Run No. 3, 1 μg/ml, control 45.13 ± 22.71, all *P <0.01
[7] = Table 1 Run No. 4, 1 μg/ml, control 1.98 ± 0.74
[8] = Table 1 Run No. 4, 1 μg/ml, control 5.48 ± 1.38
[9] = Table 1 Run No. 4, 1 μg/ml, control 54.15 ± 33.64

Compound: c1cnc(N2CCNCC2)nc1 [Compound 124]
- Number of cells ([1]; Table 1 Run No. 3, 0.0 μg/ml (so in the source)): 4.01 × 10^4 /dish
- Number of neurites/cell (mean ± S.D.) [1, 5]: 2.23 ± 0.82 neurites/cell
- Number of cells ([1]; Table 1 Run No. 3, 1 μg/ml): 4.10 × 10^4 /dish
- Length of neurites (mean ± S.D.) [1, 6]: 66.56 ± 22.16 μm/cell
- Number of neurites/cell (mean ± S.D.) [1, 7]: 2.13 ± 0.72 neurites/cell
- Number of cells (mean ± S.E.) [1, 8]: 7.22 ± 1.98 × 10^4 /dish
- Length of neurites (mean ± S.D.) [1, 9]: 72.19 ± 49.23 μm/cell
- Number of neurites/cell (mean ± S.D.) ([1]; Table 1 Run No. 4, 10 μg/ml, control 1.98 ± 0.74): 2.08 ± 0.69 neurites/cell
- Number of cells (mean ± S.E.) ([1]; Table 1 Run No. 4, 10 μg/ml, control 5.48 ± 1.38): 5.45 ± 2.61 × 10^4 /dish
- Length of neurites (mean ± S.D.) ([1]; Table 1 Run No. 4, 10 μg/ml, control 54.15 ± 33.64): 71.31 ± 45.67 μm/cell
- Number of neurites/cell (mean ± S.D.) ([1]; Table 1 Run No. 5, 1 μg/ml, control 1.96 ± 0.64): 1.96 ± 0.54 neurites/cell
- Number of cells (mean ± S.E.) ([1]; Table 1 Run No. 5, 1 μg/ml, control 5.30 ± 0.23): 4.89 ± 0.59 × 10^4 /dish
- Length of neurites (mean ± S.D.) ([1]; Table 1 Run No. 5, 1 μg/ml, control 46.41 ± 33.28): 52.59 ± 32.50 μm/cell
- Cells having neurites with a length at least twice the long diameter of cell/total number of cells ([2]; Table 3 Run No. 1, 3.6 μM, control 2.2 ± 0.8): 4.6 ± 0.5%
- Cells having neurites with a length at least twice the long diameter of cell/total number of cells ([2]; Table 3 Run No. 1, 36 μM, control 2.2 ± 0.8): 3.8 ± 1.2%
- LD50 at 24 h (Acute toxicity, mouse; Table 6, p.o.): 550 to 1000 mg/kg
- Number of dead animals/number of test animals (mice; Table 6, 300 mg/kg p.o.): 0/5
- Number of dead animals/number of test animals (mice; Table 6, 500 mg/kg p.o.): 0/5
- Number of dead animals/number of test animals (mice; Table 6, 1000 mg/kg p.o.): 3/5

Compound: Cc1nc(N2CCNCC2)nc2c1CC(=O)N2C [Compound 468]
- Cells having neurites with a length at least twice the long diameter of cell/total number of cells ([2]; Table 3 Run No. 10, 0.3 mM, control 1.7 ± 0.7): 5.8 ± 0.8%
- Cells having neurites with a length at least twice the long diameter of cell/total number of cells ([2]; Table 3 Run No. 10, 1 mM, control 1.7 ± 0.7): 15.7 ± 0.5%
- LD50 at 24 h (Acute toxicity, mouse; Table 7, p.o.): > 1000 mg/kg
- Number of dead animals/number of test animals (mice; Table 7, 1000 mg/kg p.o.): 1/5

Compound: O=c1[nH]ccc2nc(N3CCNCC3)ncc12 [Compound 701]
- Cells having neurites with a length at least twice the long diameter of cell/total number of cells ([2]; Table 3 Run No. 7, 0.03 mM, control 2.5 ± 0.7): 6.8 ± 0.8%
- Cells having neurites with a length at least twice the long diameter of cell/total number of cells ([2]; Table 3 Run No. 7, 0.5 mM, control 2.5 ± 0.7): 42.5 ± 1.8%
- Cells having neurites with a length at least twice the long diameter of cell/total number of cells ([2]; Table 3 Run No. 7, 1 mM, control 2.5 ± 0.7): 57.2 ± 1.2%
- Cells having neurites with a length at least twice the long diameter of cell/total number of cells ([2]; Table 3 second Run No. 5, 0.1 mM, control 4.5 ± 0.3): 16.2 ± 1.2%
- LD50 at 24 h (Acute toxicity, mouse; Table 6, p.o.): 300 to 550 mg/kg
- Number of dead animals/number of test animals (mice; Table 6, 300 mg/kg p.o.): 0/5
- Number of dead animals/number of test animals (mice; Table 6, 500 mg/kg p.o.): 3/5
- Number of dead animals/number of test animals (mice; Table 6, 1000 mg/kg p.o.): 5/5

Compound: CC(C)Nc1ncccn1.O=P(O)(O)O [Isaxonine, 2-isopropylaminopyrimidine ortho-phosphate, reference compound]
- Average of the proportions ([3]; Table 2 neuro-2a Run No. 1, 1 μg/ml, control 7.9): 12.15%
- Average of the proportions ([3]; Table 2 neuro-2a Run No. 2, 1 μg/ml, control 7.9): 12.15%
- Average of the proportions ([3]; Table 2 neuro-2a Run No. 3, 0.1 μg/ml, control 2.0): 9.1%
- Average of the proportions ([3]; Table 2 neuro-2a Run No. 3, 1 μg/ml, control 2.0): 9.1%
- Length of neurites (mean ± S.D.) ([1]; Table 1, Run No. 6 by footnote, 1 μg/ml, control 42.48 ± 19.64, all *P <0.01): 58.20 ± 25.40 μm/cell
- Length of neurites (mean ± S.D.) ([1]; Table 1, Run No. 7 by footnote, 1 μg/ml, control 42.20 ± 17.75, all *P <0.01): 57.06 ± 28.78 μm/cell
- Number of neurites/cell (mean ± S.D.) ([1]; Table 1, last control group (Run No. 7 by footnote), 1 μg/ml, control 1.77 ± 0.68): 1.91 ± 0.56 neurites/cell
- Number of neurites/cell (mean ± S.D.) ([1]; Table 1, second control group (Run No. 6 by footnote), 1 μg/ml, control 1.79 ± 0.80): 2.00 ± 0.86 neurites/cell
- Number of neurites/cell (mean ± S.D.) ([1]; Table 1 Run No. 1, 1 μg/ml, control 2.09 ± 0.61): 2.18 ± 0.77 neurites/cell
- Number of cells (mean ± S.E.) ([1]; Table 1 Run No. 1, 1 μg/ml, control 14.34 ± 0.72): 17.63 ± 2.80 × 10^4 /dish
- Length of neurites (mean ± S.D.) ([1]; Table 1 Run No. 1, 1 μg/ml, control 70.10 ± 43.03): 87.86 ± 56.03 μm/cell
- Number of neurites/cell (mean ± S.D.) ([1]; Table 1 Run No. 1, 10 μg/ml, control 2.09 ± 0.61): 1.99 ± 0.51 neurites/cell
- Number of cells (mean ± S.E.) ([1]; Table 1 Run No. 1, 10 μg/ml, control 14.34 ± 0.72): 19.18 ± 0.67 × 10^4 /dish
- Length of neurites (mean ± S.D.) ([1]; Table 1 Run No. 1, 10 μg/ml, control 70.10 ± 43.03): 82.87 ± 50.70 μm/cell
- Number of neurites/cell (mean ± S.D.) ([1]; Table 1 Run No. 2, 1 μg/ml, control 2.06 ± 0.60): 2.09 ± 0.66 neurites/cell
- Number of cells (mean ± S.E.) ([1]; Table 1 Run No. 2, 1 μg/ml, control 12.30 ± 1.48): 14.89 ± 1.35 × 10^4 /dish
- Length of neurites (mean ± S.D.) ([1]; Table 1 Run No. 2, 1 μg/ml, control 55.00 ± 37.26): 66.01 ± 40.21 μm/cell
- Number of neurites/cell (mean ± S.D.) [1, 5]: 2.31 ± 0.86 neurites/cell
- Number of cells ([1]; Table 1 Run No. 3, 1 μg/ml): 4.72 × 10^4 /dish
- Length of neurites (mean ± S.D.) [1, 6]: 68.29 ± 24.83 μm/cell
- Number of neurites/cell (mean ± S.D.) [1, 7]: 1.99 ± 0.70 neurites/cell
- Number of cells (mean ± S.E.) [1, 8]: 9.44 ± 1.95 × 10^4 /dish
- Length of neurites (mean ± S.D.) [1, 9]: 71.25 ± 40.39 μm/cell
- Cells having neurites with a length at least twice the long diameter of cell/total number of cells ([2]; Table 3 Run No. 3, 0.03 mM, control 3.9 ± 0.3): 4.7 ± 0.4%
- Cells having neurites with a length at least twice the long diameter of cell/total number of cells ([2]; Table 3 Run No. 3, 0.1 mM, control 3.9 ± 0.3): 6.8 ± 1.2%
- Cells having neurites with a length at least twice the long diameter of cell/total number of cells ([2]; Table 3 Run No. 3, 1 mM, control 3.9 ± 0.3): 7.0 ± 0.8%
- Cells having neurites with a length at least twice the long diameter of cell/total number of cells ([2]; Table 3 Run No. 4, 1 mM, control 3.1 ± 0.2): 5.7 ± 1.2%
- Cells having neurites with a length at least twice the long diameter of cell/total number of cells ([2]; Table 3 Run No. 4, 3 mM, control 3.1 ± 0.2): 13.6 ± 2.3%
- Cells having neurites with a length at least twice the long diameter of cell/total number of cells ([2]; Table 3 Run No. 4, 10 mM, control 3.1 ± 0.2): 34.4 ± 0.6%
- Cells having neurites with a length at least twice the long diameter of cell/total number of cells ([2]; Table 3 Run No. 6, 10 mM, control 4.4 ± 0.9): 29.9 ± 0.9%
- Cells having neurites with a length at least twice the long diameter of cell/total number of cells ([2]; Table 3 Run No. 7, 10 mM, control 2.5 ± 0.7): 24.9 ± 1.0%
- Cells having neurites with a length at least twice the long diameter of cell/total number of cells ([2]; Table 3 Run No. 8, 10 mM, control 3.7 ± 0.4): 28.2 ± 1.6%
- Cells having neurites with a length at least twice the long diameter of cell/total number of cells ([2]; Table 3 second Run No. 5, 1 mM, control 4.5 ± 0.3): 6.8 ± 2.2%
- Cells having neurites with a length at least twice the long diameter of cell/total number of cells ([2]; Table 3 second Run No. 5, 10 mM, control 4.5 ± 0.3): 27.0 ± 3.4%
- Average of the proportions ([4]; Table 2 GOTO Run No. 1): 12.58%
- Average of the proportions ([4]; Table 2 GOTO Run No. 2): 12.58%
